Experimental data from patent publication US20070218150A1, “Active Oxygen Scavenging Agent and Moisturizing Agent Containing Wild Watermelon Extract” (priority 2004, published 2007).

Assay: active oxygen (hydroxyl radical) scavenging, competitive reaction analysis using salicylic acid oxidation as an index
Type: biochemical
Conditions: 50 mg/l of citrulline solution; 25 degrees, 90 minutes, pH 7.4
Experimental: The active oxygen scavenging ability of the wild watermelon fruit extract is assayed by competitive reaction analysis using salicylic acid oxidation as an index. Specifically, 2 mM salicylic acid and the wild watermelon fruit extract of various concentrations are dissolved in 50 mM phosphate buffer (pH 7.4). After that, by adding 0.6 mM of hydrogen peroxide, 0.15 mM of FeEDTA and 0.26 mM of ascorbic acid, hydroxyl radical is generated, and reacted at 25 degrees for 90 minutes. Quantitation of dihydroxyl benzoic acid (DHBA) generated by salicylic acid oxidation followed the method as set forth in the literature (Smirnofff and Cumbes (1989) Phytochemistry, 28: 1057-1060.)

NC(=O)NCCC[C@H](N)C(=O)O [citrulline]
inhibition of salicylic acid oxidation: 6%
